# Measured values from US20260317304A1, “TEAD INHIBITORS AND METHODS OF USE” (Sporos BioDiscovery, Inc., priority 2022, published 2026).
# Columns and labels:
# SDM103T2 cells = test: SDM103T2 proliferation and cell viability assay (CTG); type: cell-based; conditions: 144 hours
# Protocol: SDM103T2 cells were trypsinised, counted and plated at 800 cells/well in 200 μl of growth media in 96 well flat bottom tissue culture treated plates. The plated cells were incubated overnight at 37° C., 5% CO2 before being treated with compounds in triplicate for each assay point. 50 μl of the serially diluted compound was added to each well giving a final DMSO concentration of 0.5% per well and a total volume of 250 μl per well. The treated cells were incubated for 144 hours (6 days) at 37° C., 5% CO2. Following compound treatment the remaining viable cells were detected using the Promega CellTiter-Glo 2.0 assay as follows: 150 μl of media was removed from each of the wells to be assayed and 100 μl of room temperature CellTiter-Glo 2.0 reagent was added. The plate was placed on an orbital shaker at 500 rpm at room temperature for 2 minutes, and then incubated without shaking for a further 10 minutes at room temperature. 150 μl of cell lysate was removed from each well and dispensed into a single well of a white opaque 96 well plate. Luminescence at 545 nm was read using a BMG CLARIOstar plate reader. The luminescent signal was directly proportional to number of viable cells, the percent of viable cells relative to the DMSO control was then calculated for each assay point. Percent viability relative to DMSO control was plotted against compound concentration and a curve fitted with non-linear regression in GraphPad Prism software. EC50 and absolute IC50 values were calculated using GraphPad Prism software as follows: For EC50 values a non-constrained four-parameter logistic curve fit was used (Sigmoidal, 4PL, X is concentration). For Absolute IC50 values the baseline was constrained to Y=0 and top at 100 (Absolute IC50, X is concentration). Area Under the Curve (AUC): Prism computes area-under-the-curve by the trapezoidal method. The analysis sees a fitted curve as simply a series of connected XY points. Prism simply computes the area under the “curve” defined by connecting the points by straight lines. The units of the AUC are the units of the Y axis times units of the X axis.
# For EC50 data, the symbol “A” indicates a value of less than 0.2 μM; the symbol “B” indicates a value in the range of from 0.2 μM up to 1 μM; and the symbol “C” indicates a value of greater than 1 μM.
# MSTO-211H xenograft = test: Mouse xenograft MSTO-211H tumors, study part 1; type: in vivo, BALB/c nude mice; conditions: PO; for Tumor size (mean ± SEM) / T/C / TGI: BID; for Tumor Volume (mean ± SEM): BID (Table 16)
# From the text: This study evaluated the in vivo anti-tumor efficacy of test compounds in BALB/c nude mice for treatment of MSTO-211H xenograft of lung cancer.
# • Species: Mus Musculus • Strain: BALB/c nude • Age: 6-8 weeks • Sex: female • Body weight: 18-22 g • Number of animals inoculated with tumor: 80 mice • Number of animals enrolled in the treatment: 36 mice • Number of unenrolled animals: 44 mice • Animal supplier: Beijing Vital River Biotechnology Experimental Animal Co. Ltd Certification number: 20170011010591
# The MSTO-211H tumor cells were maintained in RPMI 1640 medium supplemented with 10% Fetal bovine serum and 1% Antibiotic-Antimycotic at 37° C. in an atmosphere of 5% CO2 in air. The tumor cells were routinely subcultured twice weekly by trypsin-EDTA. The cells growing in an exponential growth phase with 95% cell survival or above were harvested, and counted for tumor inoculation.
# Each mouse was inoculated subcutaneously at the right flank with MSTO-211H tumor cells (5×10^6+50% matrigel/0.2 mL) for tumor development. Animals were marked with earrings with unique 6 significant figure number for identification. The treatments of part 1 were started on day 5 after cell inoculation when the average tumor volume reached 181 mm^3. The treatments of part 2 were started on day 16 after cell inoculation when the average tumor volume reached 254 mm^3. The treatments of part 3 were started on day 33 after cell inoculation when the average tumor volume reached 969 mm^3.
# The major endpoint was to determine if the tumor growth could be delayed. Tumor volume was measured twice a week in two dimensions using a caliper, and the volume was expressed in mm^3 using the formula: V=0.5 a×b^2 where a and b are the long and short diameters of the tumor, respectively. The tumor size was then used for calculations of T/C value. The TGI value (in percent) or the T/C value (in percent) is an indication of antitumor effectiveness; T and C are the mean tumor volumes or tumor weights of the treated and control groups, respectively, on a given day.
# TGI was calculated for each group using the formula: TGI (%)=[1−(Ti−T0)/(Vi−V0)]×100; Ti is the average tumor volume of a treatment group on a given day, T0 is the average tumor volume of the treatment group on the day of treatment start, Vi is the average tumor volume of the vehicle control group on the same day with Ti, and V0 is the average tumor volume of the vehicle group on the day of treatment start.
# Relative T/C (%)=TRTV/CRTV×100 (RTV (%)=Vt/V0×100, Vt is the average tumor volume on a given day, V0 is the average tumor volume on the first day of treatment. TRTV is the RTV of a treatment group, and the CRTV is the RTV of the vehicle control group.)
# The antitumor effectiveness of part 1 study was analyzed on PG-D31 when vehicle group reached 681 mm^3.
# Summary statistics, including mean and the standard error of the mean (SEM), were provided for the tumor volume of each group at each time point.
# Statistical analysis of difference in tumor volume among the groups was conducted on the data obtained at the end of the study.
# One-tailed T test was performed to compare tumor volumes between two groups. All data are analyzed using GraphPad Prism 6.0. p<0.05 is considered to be statistically significant.
Structure (SMILES),EC50 (SDM103T2 cells),"Tumor size (mean ± SEM) (MSTO-211H xenograft; part 1, day 0, 12.5 mg/kg)","Tumor size (mean ± SEM) (MSTO-211H xenograft; part 1, day 3, 12.5 mg/kg)","Tumor size (mean ± SEM) (MSTO-211H xenograft; part 1, day 6, 12.5 mg/kg)","Tumor size (mean ± SEM) (MSTO-211H xenograft; part 1, day 10, 12.5 mg/kg)","Tumor size (mean ± SEM) (MSTO-211H xenograft; part 1, day 13, 12.5 mg/kg)","Tumor size (mean ± SEM) (MSTO-211H xenograft; part 1, day 17, 12.5 mg/kg)","Tumor size (mean ± SEM) (MSTO-211H xenograft; part 1, day 20, 12.5 mg/kg)","Tumor size (mean ± SEM) (MSTO-211H xenograft; part 1, day 23, 12.5 mg/kg)","Tumor size (mean ± SEM) (MSTO-211H xenograft; part 1, day 27, 12.5 mg/kg)","T/C (MSTO-211H xenograft; part 1, day 31, 12.5 mg/kg)","TGI (MSTO-211H xenograft; part 1, day 31, 12.5 mg/kg)","Tumor size (mean ± SEM) (MSTO-211H xenograft; part 1, day 31, 12.5 mg/kg)","Tumor Volume (mean ± SEM) (MSTO-211H xenograft; part 1, day 31, 12.5 mg/kg)"
"Cn1nnc(-c2cc([C@]3(C)CCNC3=O)ccc2Nc2ccc(C(F)(F)F)cc2)n1 (stereo in doubt) [Compound 20, 3-methyl-3-(3-(2-methyl-2H-tetrazol-5-yl)-4-((4-(trifluoromethyl)phenyl)amino)phenyl) pyrrolidin-2-one]",< 0.2 µM,181 ± 7 mm^3,183 ± 26 mm^3,188 ± 52 mm^3,117 ± 44 mm^3,92 ± 28 mm^3,66 ± 10 mm^3,60 ± 13 mm^3,59 ± 16 mm^3,75 ± 18 mm^3,8.81%,124.25%,60 ± 11 mm^3,60 ± 11 mm^3
"C=CC(=O)Nc1ccc(C)c(Oc2ccc(Cl)cc2)c1 [Compound 1-3, reference compound]",< 0.2 µM,,,,,,,,,,,,,
"Cn1cnc(-c2cc([C@@]3(C)CCNC3=O)ccc2Nc2ccc(C(F)(F)F)cc2)c1 (single isomer, unassigned) [Compound 5, 3-methyl-3-(3-(1-methyl-1H-imidazol-4-yl)-4-((4-(trifluoromethyl)phenyl)amino)phenyl)pyrrolidin-2-one]",< 0.2 µM,181 ± 11 mm^3,241 ± 31 mm^3,230 ± 30 mm^3,151 ± 18 mm^3,117 ± 10 mm^3,63 ± 13 mm^3,72 ± 15 mm^3,64 ± 7 mm^3,79 ± 13 mm^3,11.82%,120.17%,81 ± 18 mm^3,81 ± 18 mm^3
"Cn1cnc(-c2cc(C3(C)NC(=O)NC3=O)ccc2Nc2ccc(C(F)(F)F)cc2)c1 (single isomer, unassigned) [Compound 15, 5-methyl-5-(3-(1-methyl-1H-imidazol-4-yl)-4-((4-(trifluoromethyl)phenyl)amino)phenyl)imidazolidine-2,4-dione]",< 0.2 µM,181 ± 11 mm^3,216 ± 27 mm^3,175 ± 19 mm^3,154 ± 5 mm^3,111 ± 13 mm^3,88 ± 12 mm^3,105 ± 6 mm^3,134 ± 10 mm^3,166 ± 20 mm^3,23.57%,104.12%,161 ± 12 mm^3,161 ± 12 mm^3
"FC(F)(F)c1ccc(CN2CCC(C3CC(Br)=NO3)CC2)cc1 (centres unmarked) [Compound 1-2, reference compound]",> 1 µM,,,,,,,,,,,,,
